Reference: PubChem BioAssay (NCI)
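GI50 is the concentration that inhibits growth by half. TGI: total growth inhibition.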

Legend:
Test in all cases: NCI anticancer screen, dose series, 384-well format
[1] = tested on: UACC-257 melanoma
[2] = tested on: RXF 393 renal
[3] = tested on: MCF7 breast
[4] = tested on: SN12C renal
[5] = tested on: ACHN renal
[6] = tested on: U251 glioblastoma
[7] = tested on: HS 578T breast
[8] = tested on: 786-0 renal
[9] = tested on: CAKI-1 renal
[10] = tested on: NCI-H522 lung
[11] = tested on: T-47D breast
[12] = tested on: SNB-19 CNS
[13] = tested on: UO-31 renal

Nc1nc(OCc2cc(Br)cs2)c2[nH]cnc2n1
GI50 [1]: 51.7 µM
TGI [1]: > 100 µM
GI50 [2]: 24.5 µM
TGI [2]: 62.7 µM
GI50 [3]: 32.6 µM
TGI [3]: > 100 µM
GI50 [4]: 29 µM
TGI [4]: > 100 µM
GI50 [5]: 30.2 µM
TGI [5]: > 100 µM
GI50 [6]: 31.3 µM
TGI [6]: > 95.1 µM
GI50 [7]: 22.8 µM
TGI [7]: 61.9 µM
GI50 [8]: 27.3 µM
TGI [8]: > 100 µM
GI50 [9]: 25.1 µM
TGI [9]: 86.6 µM
GI50 [10]: 27.6 µM
TGI [10]: > 77 µM
GI50 [11]: 23.4 µM
TGI [11]: 63.5 µM
GI50 [12]: 70 µM
TGI [12]: > 100 µM
GI50 [13]: 4.73 µM
TGI [13]: > 100 µM
